Source: patent US6346273B1, “Process for solubilizing pharmaceutically active ingredients in water and in aqueous vehicles” (Farmigea S.p.A., priority 1997, dated 2002)
Each block holds one molecule with its values, some of them ahead of it.

How the values were obtained:
[1] = Amounts of drugs solubilized at 20° C. in water, with PVP, with PEG-GTR and with the method of the invention; format: physicochemical
Text: In this table, the solubility of each drug in water is compared with the solubility obtainable with the complexation method (with PVP) and with the solubility obtainable with the micellar solubilization method with surfactants (with PEG-GTR). In all cases it is evident that the combined method according to the invention affords solubility increases that are largely greater than the sum of the increases obtainable with each one of the prior art methods.

[2] = co-precipitated with PVP having M.W.=50,000; cited from earlier work
[3] = PVP (M.W. = 10,000) 18.0 % w/w in water

Structure (SMILES): CN1CCN(c2c(F)cc3c(=O)c(C(=O)O)cn4c3c2SCC4)CC1 [Rufloxacin]
Amt. of drug solubilized at 20° C. (% w/w) ([1]; PEG-GTR 1.0 % w/w in water): 0.03 % w/w
Amt. of drug solubilized at 20° C. (% w/w) ([1]; PVP (M.W. = 44,000-54,000) 15.0 % w/w in water): 0.24 % w/w
Amt. of drug solubilized at 20° C. (% w/w) ([1]; PVP (M.W. = 44,000-54,000) + PEG-GTR (15.0 + 1.0 % w/w), method of the invention): 0.30 % w/w
Amt. of drug solubilized at 20° C. (% w/w) ([1]; water, solubilizing agent none): 0.029 % w/w

Structure (SMILES): C[C@@H]1O[C@@H](OC[C@H]2O[C@@H](Oc3c(-c4ccc(O)c(O)c4)oc4cc(O)cc(O)c4c3=O)[C@H](O)[C@@H](O)[C@@H]2O)[C@H](O)[C@H](O)[C@H]1O [Rutin]
Amt. of drug solubilized at 20° C. (% w/w) ([1]; PEG-GTR 10.0 % w/w in water): 0.074 % w/w
Amt. of drug solubilized at 20° C. (% w/w) ([1]; PVP (M.W. = 2000-3000) 30.0 % w/w in water): 0.37 % w/w
Amt. of drug solubilized at 20° C. (% w/w) ([1]; PVP (M.W. = 2000-3000) + PEG-GTR (30.0 + 10.0 % w/w), method of the invention): 1.0 % w/w
Amt. of drug solubilized at 20° C. (% w/w) ([1]; water, solubilizing agent none): 0.0125 % w/w

Structure (SMILES): O=C1NC(=O)C(c2ccccc2)(c2ccccc2)N1 [phenytoin]
solutions stability [2]: maximum of two years

The remaining lines, values ahead:

Amt. of drug solubilized at 20° C. (% w/w) ([1]; PEG-GTR 5.0 % w/w in water): 0.0252 % w/w
Amt. of drug solubilized at 20° C. (% w/w) [1, 3]: 0.0022 % w/w
Amt. of drug solubilized at 20° C. (% w/w) ([1]; PVP (M.W. = 10,000) + PEG-GTR (18.0 + 5.0 % w/w), method of the invention): 0.10 % w/w
Amt. of drug solubilized at 20° C. (% w/w) ([1]; water, solubilizing agent none): 0.008 % w/w
Structure (SMILES): CC(=O)OCC(=O)[C@@]12OC(C)(C)O[C@@H]1C[C@H]1[C@@H]3CC(C=O)=C4C=C(OCCCl)CC[C@]4(C)[C@@]3(F)[C@@H](O)C[C@@]12C [Formocortal]

Amt. of drug solubilized at 20° C. (% w/w) ([1]; PEG-GTR 10.0 % w/w in water): 0.05 % w/w
Amt. of drug solubilized at 20° C. (% w/w) ([1]; PVP (M.W. = 10,000) 30.0 % w/w in water): 0.03 % w/w
Amt. of drug solubilized at 20° C. (% w/w) ([1]; PVP (M.W. = 10,000) + PEG-GTR (30.0 + 10.0 % w/w), method of the invention): 0.20 % w/w
Amt. of drug solubilized at 20° C. (% w/w) ([1]; water, solubilizing agent none): 0.0029 % w/w
Structure (SMILES): C=C[C@@]1(C)CC(=O)[C@]2(O)[C@@]3(C)[C@@H](O)CCC(C)(C)[C@@H]3[C@H](O)[C@H](OC(C)=O)[C@@]2(C)O1 [Forskolin]

Amt. of drug solubilized at 20° C. (% w/w) ([1]; PEG-GTR 2.5 % w/w in water): 0.13 % w/w
Amt. of drug solubilized at 20° C. (% w/w) ([1]; PVP (M.W. = 10,000) 20.0 % w/w in water): 0.081 % w/w
Amt. of drug solubilized at 20° C. (% w/w) ([1]; PVP (M.W. = 10,000) + PEG-GTR (20.0 + 2.5 % w/w), method of the invention): 0.50 % w/w
Amt. of drug solubilized at 20° C. (% w/w) ([1]; water, solubilizing agent none): 0.0017 % w/w
Structure (SMILES): CN1C(C(=O)Nc2ccccn2)=C(O)c2ccccc2S1(=O)=O [Piroxicam]

Amt. of drug solubilized at 20° C. (% w/w) ([1]; PEG-GTR 6.0 % w/w in water): 0.60 % w/w
Amt. of drug solubilized at 20° C. (% w/w) ([1]; PEG-GTR 8.0 % w/w in water): 0.80 % w/w
Amt. of drug solubilized at 20° C. (% w/w) ([1]; PEG-GTR 10.0 % w/w in water): 1.20 % w/w
Amt. of drug solubilized at 20° C. (% w/w) ([1]; PVP (M.W. 10,000) + PEG-GTR (18.0 + 8.0 % w/w), method of the invention): 2.0 % w/w
Amt. of drug solubilized at 20° C. (% w/w) [1, 3]: 0.05 % w/w
Amt. of drug solubilized at 20° C. (% w/w) ([1]; PVP (M.W. = 10,000) + PEG-GTR (18.0 + 6.0 % w/w), method of the invention): 1.50 % w/w
Amt. of drug solubilized at 20° C. (% w/w) ([1]; PVP (M.W. = 10,000) + PEG-GTR (18.0 + 10.0 % w/w), method of the invention): 3.0 % w/w
solubility in water ([1]; at 20° C.): 0.75 mg/100 g of water
solubility when treated with complexation with PVP ([1]; complexation with PVP): 0.05 % (w/w)
solubility by means of surface-active agents ([1]; optimized choice of surfactant and amounts): ~1.2 % (w/w)
original solubility ([1]; water, no solubilization technique): 0.00075 % (w/w)
Amt. of drug solubilized at 20° C. (% w/w) ([1]; water, solubilizing agent none): 0.00075 % w/w
Structure (SMILES): COc1ccc2c(C(=S)N(C)CC(=O)O)cccc2c1C(F)(F)F [Tolrestat]
